Measurements as given in US11000033B2, “Ketone or oxime compound, and herbicide” (NISSAN CHEMICAL CORPORATION, priority 2014, dated 2021).

Assays:
Assay type in all cases: in vivo
Lolium multiflorum Lam. = assay: Test Example 4: herbicidal effect by soil treatment (symbol K); conditions: for K (Lolium multiflorum Lam.) herbicidal effect grade: application herbicide amount 320 g/ha
Method in brief: (§1)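 Seeds were sown in sterilized diluvial soil, covered with about 1.5 cm of soil, and the soil surface was sprayed with a water-diluted emulsion of the compound at a predetermined rate. Plants grew in a greenhouse at 25° C. to 30° C.; effects were scored visually 3 weeks after application.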

wheat = assay: Test Example 4: effect on crop by soil treatment (symbol e); conditions: for e (wheat) effect on crop grade: application herbicide amount 320 g/ha
Method in brief: (§2)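 Soil-treatment setup: crop and weed seeds were spot-sown into sterilized diluvial soil, then buried beneath approximately 1.5 cm of it, and the boxes were housed in a 25–30° C. greenhouse.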

soybean = assay: Test Example 4: effect on crop by soil treatment (symbol d); conditions: for d (soybean) effect on crop grade: application herbicide amount 320 g/ha
Method in brief: as §2

Alopecurus myosuroides [1] = assay: Test Example 4: herbicidal effect by soil treatment (symbol J); conditions: for J (Alopecurus myosuroides) herbicidal effect grade: application herbicide amount 320 g/ha
Method in brief: as §1

Monochoria vaginalis = assay: Test Example 2: herbicidal activity, application during weed generation in submerged conditions (symbol C); conditions: Table 23; application herbicide amount 320 g/ha; grade 0-5 by criteria of Test Example 1
Method in brief: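 Weeds emerging under flooded conditions were treated with compound formulated as an emulsion and diluted with water to the intended herbicide amount, poured onto the surface of 4 cm standing water. Seeds had been co-sown in alluvial soil; plants grew at 25° C. to 30° C. and were assessed after 3 weeks.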

rice = assay: Test Example 4: effect on crop by soil treatment (symbol b); conditions: for b (directly sowed rice plant) effect on crop grade: application herbicide amount 320 g/ha
Method in brief: as §2

corn = assay: Test Example 5: effect on crop by foliage application, plastic box (symbol c); conditions: 320 g/ha, 3 weeks after application
Method in brief: (§3)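 Crop seed is sown alongside grass and broadleaf weed species in spots in sterilized diluvial soil, then covered to a depth of about 1.5 cm. Plants grow in a greenhouse kept at 25° C. to 30° C.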

Alopecurus myosuroides [2] = assay: Test Example 5: herbicidal effect by foliage application, plastic box (symbol J); conditions: 320 g/ha, 3 weeks after application
Method in brief: (§4)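 Herbicide, formulated as an emulsion and diluted in water, is sprayed onto the aerial parts of 14-day seedlings. These were grown at 25° C. to 30° C. in sterilized diluvial soil; effects are graded after 3 weeks.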

[3] = system: Echinochloa crus-galli var. crus-galli; assay: Test Example 5: herbicidal effect by foliage application, plastic box (symbol H); conditions: 320 g/ha, 3 weeks after application
Method in brief: as §4

Galium spurium = assay: Test Example 5: herbicidal effect by foliage application, plastic box (symbol Q); conditions: 320 g/ha, 3 weeks after application
Method in brief: as §4

transplanted rice plant = assay: Test Example 1: effect on crop, application before weed generation in submerged conditions (symbol a); conditions: application herbicide amount 320 g/ha
Method in brief: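 Rice at 2.5 leaf stage transplanted into submerged soil (4 cm depth) sown with three weed species; herbicide applied before weed emergence.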

rapeseed = assay: Test Example 5: effect on crop by foliage application, plastic box (symbol g); conditions: 320 g/ha, 3 weeks after application
Method in brief: as §3

Digitaria ciliaris = assay: Test Example 5: herbicidal effect by foliage application, plastic box (symbol F); conditions: 320 g/ha, 3 weeks after application
Method in brief: as §4

Scirpus juncoides = assay: Test Example 1: herbicidal activity, application before weed generation in submerged conditions (symbol B); conditions: application herbicide amount 320 g/ha
Method in brief: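 In a flooded pot test with alluvial soil, the emulsion-formulated compound was diluted with water to a predetermined amount and applied to the floodwater immediately on the sowing day. Pots were held in a greenhouse at 25–30 °C for 3 weeks before each weed was rated.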

Structure (SMILES): CC(CC1CC(O)=C(c2c(C)cc(C)cc2C)C1=O)=NOCC1CC1 (stereo not drawn) [1-024]
- K (Lolium multiflorum Lam.) herbicidal effect grade (Lolium multiflorum Lam.): 5 (Herbicidal ratio of 90% or more (almost completely withered))
- e (wheat) effect on crop grade (wheat): 4 (Herbicidal ratio of 70% or higher and lower than 90%)
- d (soybean) effect on crop grade (soybean): 1 (Herbicidal ratio of 5% or higher and lower than 20%)
- J (Alopecurus myosuroides) herbicidal effect grade (Alopecurus myosuroides [1]): 5 (Herbicidal ratio of 90% or more (almost completely withered))
- Herbicidal effect grade, C: Monochoria vaginalis (Monochoria vaginalis): 3 (Herbicidal ratio of 40% or higher and lower than 70%)
- b (directly sowed rice plant) effect on crop grade (rice): 5 (Herbicidal ratio of 90% or more (almost completely withered))
- c: corn, effect on crop grade (corn): 5 (Herbicidal ratio of 90% or more (almost completely withered))
- J: Alopecurus myosuroides, herbicidal effect grade (Alopecurus myosuroides [2]): 5 (Herbicidal ratio of 90% or more (almost completely withered))
- H: Echinochloa crus-galli var. crus-galli, herbicidal effect grade [3]: 5 (Herbicidal ratio of 90% or more (almost completely withered))
- Q: Galium spurium, herbicidal effect grade (Galium spurium): 3 (Herbicidal ratio of 40% or higher and lower than 70%)
- Effect grade on crop, a: transplanted rice plant (transplanted rice plant): 5 (Herbicidal ratio of 90% or more (almost completely withered))
- g: rapeseed, effect on crop grade (rapeseed): 4 (Herbicidal ratio of 70% or higher and lower than 90%)
- F: Digitaria ciliaris, herbicidal effect grade (Digitaria ciliaris): 5 (Herbicidal ratio of 90% or more (almost completely withered))
- Herbicidal effect grade, B: Scirpus juncoides (Scirpus juncoides): 5 (Herbicidal ratio of 90% or more (almost completely withered))

Structure (SMILES): CC(CC1CC(O)=C(c2c(C)cc(C)cc2C)C1=O)=NOCC(F)(F)F (stereo not drawn) [1-028]
- K (Lolium multiflorum Lam.) herbicidal effect grade (Lolium multiflorum Lam.): 5 (Herbicidal ratio of 90% or more (almost completely withered))
- e (wheat) effect on crop grade (wheat): 4 (Herbicidal ratio of 70% or higher and lower than 90%)
- d (soybean) effect on crop grade (soybean): 0 (Herbicidal ratio of 5% or lower (almost no effect))
- J (Alopecurus myosuroides) herbicidal effect grade (Alopecurus myosuroides [1]): 5 (Herbicidal ratio of 90% or more (almost completely withered))
- Herbicidal effect grade, C: Monochoria vaginalis (Monochoria vaginalis): 0 (Herbicidal ratio of 5% or lower (almost no effect))
- b (directly sowed rice plant) effect on crop grade (rice): 5 (Herbicidal ratio of 90% or more (almost completely withered))
- c: corn, effect on crop grade (corn): 4 (Herbicidal ratio of 70% or higher and lower than 90%)
- J: Alopecurus myosuroides, herbicidal effect grade (Alopecurus myosuroides [2]): 5 (Herbicidal ratio of 90% or more (almost completely withered))
- H: Echinochloa crus-galli var. crus-galli, herbicidal effect grade [3]: 5 (Herbicidal ratio of 90% or more (almost completely withered))
- Q: Galium spurium, herbicidal effect grade (Galium spurium): 3 (Herbicidal ratio of 40% or higher and lower than 70%)
- Effect grade on crop, a: transplanted rice plant (transplanted rice plant): 5 (Herbicidal ratio of 90% or more (almost completely withered))
- g: rapeseed, effect on crop grade (rapeseed): 4 (Herbicidal ratio of 70% or higher and lower than 90%)
- F: Digitaria ciliaris, herbicidal effect grade (Digitaria ciliaris): 5 (Herbicidal ratio of 90% or more (almost completely withered))
- Herbicidal effect grade, B: Scirpus juncoides (Scirpus juncoides): 5 (Herbicidal ratio of 90% or more (almost completely withered))

Structure (SMILES): CON=C(C)CC1CC(OC(=O)COc2ccc(Cl)cc2)=C(c2c(C)cc(C)cc2C)C1=O (stereo not drawn) [1-044]
- K (Lolium multiflorum Lam.) herbicidal effect grade (Lolium multiflorum Lam.): 5 (Herbicidal ratio of 90% or more (almost completely withered))
- e (wheat) effect on crop grade (wheat): 2 (Herbicidal ratio of 20% or higher and lower than 40%)
- d (soybean) effect on crop grade (soybean): 0 (Herbicidal ratio of 5% or lower (almost no effect))
- J (Alopecurus myosuroides) herbicidal effect grade (Alopecurus myosuroides [1]): 5 (Herbicidal ratio of 90% or more (almost completely withered))
- Herbicidal effect grade, C: Monochoria vaginalis (Monochoria vaginalis): 3 (Herbicidal ratio of 40% or higher and lower than 70%)
- b (directly sowed rice plant) effect on crop grade (rice): 5 (Herbicidal ratio of 90% or more (almost completely withered))
- c: corn, effect on crop grade (corn): 4 (Herbicidal ratio of 70% or higher and lower than 90%)
- J: Alopecurus myosuroides, herbicidal effect grade (Alopecurus myosuroides [2]): 5 (Herbicidal ratio of 90% or more (almost completely withered))
- H: Echinochloa crus-galli var. crus-galli, herbicidal effect grade [3]: 5 (Herbicidal ratio of 90% or more (almost completely withered))
- Q: Galium spurium, herbicidal effect grade (Galium spurium): 0 (Herbicidal ratio of 5% or lower (almost no effect))
- Effect grade on crop, a: transplanted rice plant (transplanted rice plant): 5 (Herbicidal ratio of 90% or more (almost completely withered))
- g: rapeseed, effect on crop grade (rapeseed): 4 (Herbicidal ratio of 70% or higher and lower than 90%)
- F: Digitaria ciliaris, herbicidal effect grade (Digitaria ciliaris): 5 (Herbicidal ratio of 90% or more (almost completely withered))
- Herbicidal effect grade, B: Scirpus juncoides (Scirpus juncoides): 5 (Herbicidal ratio of 90% or more (almost completely withered))

Structure (SMILES): CON=C(C)CC1CC(OC(=O)COc2ccc3ccccc3c2)=C(c2c(C)cc(C)cc2C)C1=O (stereo not drawn) [1-083]
- K: Lolium multiflorum Lam., herbicidal effect grade (Lolium multiflorum Lam.; 320 g/ha): 5 (Herbicidal ratio of 90% or more (almost completely withered))
- e: wheat, effect grade on crop (wheat; 320 g/ha): 4 (Herbicidal ratio of 70% or higher and lower than 90%)
- d: soybean, effect grade on crop (soybean; 320 g/ha): 1 (Herbicidal ratio of 5% or higher and lower than 20%)
- J: Alopecurus myosuroides, herbicidal effect grade (Alopecurus myosuroides [1]; 320 g/ha): 5 (Herbicidal ratio of 90% or more (almost completely withered))
- Herbicidal effect grade, C: Monochoria vaginalis (Monochoria vaginalis): 3 (Herbicidal ratio of 40% or higher and lower than 70%)
- b: directly sowed rice plant, effect grade on crop (rice; 320 g/ha): 5 (Herbicidal ratio of 90% or more (almost completely withered))
- c: corn, effect on crop (criteria 0-5) (corn): 5 (Herbicidal ratio of 90% or more (almost completely withered))
- J: Alopecurus myosuroides, herbicidal effect (criteria 0-5) (Alopecurus myosuroides [2]): 5 (Herbicidal ratio of 90% or more (almost completely withered))
- H: Echinochloa crus-galli var. crus-galli, herbicidal effect (criteria 0-5) [3]: 5 (Herbicidal ratio of 90% or more (almost completely withered))
- Q: Galium spurium, herbicidal effect (criteria 0-5) (Galium spurium): 0 (Herbicidal ratio of 5% or lower (almost no effect))
- Effect grade on crop, a: transplanted rice plant (transplanted rice plant): 5 (Herbicidal ratio of 90% or more (almost completely withered))
- g: rapeseed, effect on crop (criteria 0-5) (rapeseed): 4 (Herbicidal ratio of 70% or higher and lower than 90%)
- F: Digitaria ciliaris, herbicidal effect (criteria 0-5) (Digitaria ciliaris): 5 (Herbicidal ratio of 90% or more (almost completely withered))
- Herbicidal effect grade, B: Scirpus juncoides (Scirpus juncoides): 4 (Herbicidal ratio of 70% or higher and lower than 90%)

Structure (SMILES): CCCCCCCCC(=O)OC1=C(c2c(C)cc(C)cc2C)C(=O)C(CC(C)=NOC)C1 (stereo not drawn) [1-033]
- K (Lolium multiflorum Lam.) herbicidal effect grade (Lolium multiflorum Lam.): 5 (Herbicidal ratio of 90% or more (almost completely withered))
- e (wheat) effect on crop grade (wheat): 5 (Herbicidal ratio of 90% or more (almost completely withered))
- d (soybean) effect on crop grade (soybean): 0 (Herbicidal ratio of 5% or lower (almost no effect))
- J (Alopecurus myosuroides) herbicidal effect grade (Alopecurus myosuroides [1]): 5 (Herbicidal ratio of 90% or more (almost completely withered))
- Herbicidal effect grade, C: Monochoria vaginalis (Monochoria vaginalis): 2 (Herbicidal ratio of 20% or higher and lower than 40%)
- b (directly sowed rice plant) effect on crop grade (rice): 5 (Herbicidal ratio of 90% or more (almost completely withered))
- c: corn, effect on crop grade (corn): 4 (Herbicidal ratio of 70% or higher and lower than 90%)
- J: Alopecurus myosuroides, herbicidal effect grade (Alopecurus myosuroides [2]): 5 (Herbicidal ratio of 90% or more (almost completely withered))
- H: Echinochloa crus-galli var. crus-galli, herbicidal effect grade [3]: 5 (Herbicidal ratio of 90% or more (almost completely withered))
- Q: Galium spurium, herbicidal effect grade (Galium spurium): 1 (Herbicidal ratio of 5% or higher and lower than 20%)
- Effect grade on crop, a: transplanted rice plant (transplanted rice plant): 5 (Herbicidal ratio of 90% or more (almost completely withered))
- g: rapeseed, effect on crop grade (rapeseed): 4 (Herbicidal ratio of 70% or higher and lower than 90%)
- F: Digitaria ciliaris, herbicidal effect grade (Digitaria ciliaris): 5 (Herbicidal ratio of 90% or more (almost completely withered))
- Herbicidal effect grade, B: Scirpus juncoides (Scirpus juncoides): 4 (Herbicidal ratio of 70% or higher and lower than 90%)

Structure (SMILES): CON=CC(C)(C)C1CC(O)=C(c2c(C)cc(C)cc2C)C1=O (stereo not drawn) [1-030]
- K (Lolium multiflorum Lam.) herbicidal effect grade (Lolium multiflorum Lam.): 5 (Herbicidal ratio of 90% or more (almost completely withered))
- e (wheat) effect on crop grade (wheat): 0 (Herbicidal ratio of 5% or lower (almost no effect))
- d (soybean) effect on crop grade (soybean): 0 (Herbicidal ratio of 5% or lower (almost no effect))
- J (Alopecurus myosuroides) herbicidal effect grade (Alopecurus myosuroides [1]): 3 (Herbicidal ratio of 40% or higher and lower than 70%)
- Herbicidal effect grade, C: Monochoria vaginalis (Monochoria vaginalis): 0 (Herbicidal ratio of 5% or lower (almost no effect))
- b (directly sowed rice plant) effect on crop grade (rice): 4 (Herbicidal ratio of 70% or higher and lower than 90%)
- c: corn, effect on crop grade (corn): 1 (Herbicidal ratio of 5% or higher and lower than 20%)
- J: Alopecurus myosuroides, herbicidal effect grade (Alopecurus myosuroides [2]): 4 (Herbicidal ratio of 70% or higher and lower than 90%)
- H: Echinochloa crus-galli var. crus-galli, herbicidal effect grade [3]: 4 (Herbicidal ratio of 70% or higher and lower than 90%)
- Q: Galium spurium, herbicidal effect grade (Galium spurium): 0 (Herbicidal ratio of 5% or lower (almost no effect))
- Effect grade on crop, a: transplanted rice plant (transplanted rice plant): 1 (Herbicidal ratio of 5% or higher and lower than 20%)
- g: rapeseed, effect on crop grade (rapeseed): 3 (Herbicidal ratio of 40% or higher and lower than 70%)
- F: Digitaria ciliaris, herbicidal effect grade (Digitaria ciliaris): 4 (Herbicidal ratio of 70% or higher and lower than 90%)
- Herbicidal effect grade, B: Scirpus juncoides (Scirpus juncoides): 0 (Herbicidal ratio of 5% or lower (almost no effect))
